Laboratory results: US20250114486A1, “MARKED FATTY ACID DERIVATIVE, PRECURSOR COMPOUND THEREOF, AND USE THEREOF IN CONTRAST AGENT” (BEIJING NORMAL UNIVERSITY, priority 2022, published 2025)

Test: In vivo biodistribution in female Kunming mice
Details: for Biodistribution: Large Intestine / Biodistribution: Small Intestine / Biodistribution: Stomach: unit % ID; for absolute myocardial uptake (assessment): after tail vein injection
Experimental: Female Kunming mice (20-22 g, n=3) were fasted for 12 h before the experiment, and the purified radioactive ^99mTc complex 130 was dissolved in a normal saline (containing 10% ethanol) solution (about 100 μCi/mL). Female Kunming mice were injected with 100 μL of the above solution through the tail vein, and the mice were killed by cervical dislocation at 5, 15, 30, 60, and 120 min post-injection, respectively. Blood, brain, heart, liver, spleen, lung, kidney, muscle, bone, large intestine, small intestine, stomach and tail were collected, weighed and counted, and the count distribution of each tissue and organ was calculated (unit: % ID/g, the unit of large intestine, small intestine and stomach was % ID), and the data were the mean±standard deviation of three mice in each time phase. At the same time, 100 μL of the above solution was diluted to 10 mL, which was used as the % ID without deducting the tail count.
The corresponding radioactive ^99mTc complex 158 as the typical compounds of the general formula V in this application was selected to conduct an in vivo biodistribution study in female Kunming mice. The specific experimental method was shown in the experimental method of “In vivo biodistribution study of radioactive ^99mTc complex 130 in female Kunming mice” in Example 7 above.

SMILES: COC(C)(C)C[N+]#[C][99Tc-5]([C]#[N+]CC(C)(C)OC)([C]#[N+]CC(C)(C)OC)([C]#[N+]CC(C)(C)OC)([C]#[N+]CC(C)(C)OC)[C]#[N+]CC(C)(C)OCCCS(=O)(=O)CCCCCS(=O)(=O)CCCSCCCCC(=O)O [^99mTc complex 158]
- heart-to-blood ratios (assessment): moderate level
- heart-to-lungs ratios (assessment): moderate level
- myocardial clearance: fast
- Biodistribution: Blood (5 min post-injection): 13.21 ± 2.84 ID %/g
- Biodistribution: Bone (5 min post-injection): 2.31 ± 0.36 ID %/g
- Biodistribution: Brain (5 min post-injection): 0.39 ± 0.14 ID %/g
- Biodistribution: Heart (5 min post-injection): 4.19 ± 0.10 ID %/g
- Biodistribution: Kidney (5 min post-injection): 7.80 ± 1.46 ID %/g
- Biodistribution: Liver (5 min post-injection): 37.80 ± 6.80 ID %/g
- Biodistribution: Lungs (5 min post-injection): 5.91 ± 0.89 ID %/g
- Biodistribution: Muscle (5 min post-injection): 1.82 ± 0.16 ID %/g
- Biodistribution: Spleen (5 min post-injection): 1.55 ± 0.01 ID %/g
- Heart-to-Blood ratio (5 min post-injection): 0.32
- Heart-to-Liver ratio (5 min post-injection): 0.11
- Heart-to-Lungs ratio (5 min post-injection): 0.71
- Biodistribution: Large Intestine (5 min post-injection): 1.04 ± 0.37 % ID
- Biodistribution: Small Intestine (5 min post-injection): 5.39 ± 0.84 % ID
- Biodistribution: Stomach (5 min post-injection): 0.54 ± 0.19 % ID
- Biodistribution: Blood (15 min post-injection): 5.47 ± 0.09 ID %/g
- Biodistribution: Bone (15 min post-injection): 1.04 ± 0.38 ID %/g
- Biodistribution: Brain (15 min post-injection): 0.14 ± 0.05 ID %/g
- Biodistribution: Heart (15 min post-injection): 1.63 ± 0.02 ID %/g
- Biodistribution: Kidney (15 min post-injection): 4.59 ± 0.68 ID %/g
- Biodistribution: Liver (15 min post-injection): 33.35 ± 0.37 ID %/g
- Biodistribution: Lungs (15 min post-injection): 2.69 ± 0.70 ID %/g
- Biodistribution: Muscle (15 min post-injection): 1.10 ± 0.22 ID %/g
- Biodistribution: Spleen (15 min post-injection): 0.86 ± 0.28 ID %/g
- Heart-to-Blood ratio (15 min post-injection): 0.30
- Heart-to-Liver ratio (15 min post-injection): 0.05
- Heart-to-Lungs ratio (15 min post-injection): 0.61
- Biodistribution: Large Intestine (15 min post-injection): 0.67 ± 0.15 % ID
- Biodistribution: Small Intestine (15 min post-injection): 16.67 ± 2.60 % ID
- Biodistribution: Stomach (15 min post-injection): 0.46 ± 0.13 % ID
- Biodistribution: Blood (30 min post-injection): 1.20 ± 0.1 ID %/g
- Biodistribution: Bone (30 min post-injection): 0.37 ± 0.1 ID %/g
- Biodistribution: Brain (30 min post-injection): 0.1 ± 0.04 ID %/g
- Biodistribution: Heart (30 min post-injection): 0.91 ± 0.11 ID %/g
- Biodistribution: Kidney (30 min post-injection): 2.22 ± 0.2 ID %/g
- Biodistribution: Liver (30 min post-injection): 22.5 ± 3.2 ID %/g
- Biodistribution: Lungs (30 min post-injection): 0.9 ± 0.04 ID %/g
- Biodistribution: Muscle (30 min post-injection): 0.46 ± 0.1 ID %/g
- Biodistribution: Spleen (30 min post-injection): 0.55 ± 0.1 ID %/g
- Heart-to-Blood ratio (30 min post-injection): 0.76
- Heart-to-Liver ratio (30 min post-injection): 0.04
- Heart-to-Lungs ratio (30 min post-injection): 1.00
- Biodistribution: Large Intestine (30 min post-injection): 1.25 ± 0.1 % ID
- Biodistribution: Small Intestine (30 min post-injection): 20.9 ± 4.6 % ID
- Biodistribution: Stomach (30 min post-injection): 0.25 ± 0.1 % ID
- Biodistribution: Blood (60 min post-injection): 0.42 ± 0.03 ID %/g
- Biodistribution: Bone (60 min post-injection): 0.24 ± 0.04 ID %/g
- Biodistribution: Brain (60 min post-injection): 0.06 ± 0.01 ID %/g
- Biodistribution: Heart (60 min post-injection): 0.67 ± 0.09 ID %/g
- Biodistribution: Kidney (60 min post-injection): 1.20 ± 0.10 ID %/g
- Biodistribution: Liver (60 min post-injection): 22.8 ± 1.20 ID %/g
- Biodistribution: Lungs (60 min post-injection): 0.50 ± 0.02 ID %/g
- Biodistribution: Muscle (60 min post-injection): 0.31 ± 0.06 ID %/g
- Biodistribution: Spleen (60 min post-injection): 0.24 ± 0.06 ID %/g
- Heart-to-Blood ratio (60 min post-injection): 1.60
- Heart-to-Liver ratio (60 min post-injection): 0.03
- Heart-to-Lungs ratio (60 min post-injection): 1.34
- Biodistribution: Large Intestine (60 min post-injection): 1.31 ± 0.27 % ID
- Biodistribution: Small Intestine (60 min post-injection): 34.24 ± 3.12 % ID
- Biodistribution: Stomach (60 min post-injection): 0.38 ± 0.05 % ID
- Biodistribution: Blood (120 min post-injection): 0.26 ± 0.01 ID %/g
- Biodistribution: Bone (120 min post-injection): 0.15 ± 0.05 ID %/g
- Biodistribution: Brain (120 min post-injection): 0.03 ± 0.02 ID %/g
- Biodistribution: Heart (120 min post-injection): 0.52 ± 0.01 ID %/g
- Biodistribution: Kidney (120 min post-injection): 0.80 ± 0.07 ID %/g
- Biodistribution: Liver (120 min post-injection): 13.81 ± 0.59 ID %/g
- Biodistribution: Lungs (120 min post-injection): 0.32 ± 0.06 ID %/g
- Biodistribution: Muscle (120 min post-injection): 0.21 ± 0.03 ID %/g
- Biodistribution: Spleen (120 min post-injection): 0.15 ± 0.07 ID %/g
- Heart-to-Blood ratio (120 min post-injection): 2.00
- Heart-to-Liver ratio (120 min post-injection): 0.04
- Heart-to-Lungs ratio (120 min post-injection): 1.63
- Biodistribution: Large Intestine (120 min post-injection): 1.02 ± 0.22 % ID
- Biodistribution: Small Intestine (120 min post-injection): 19.83 ± 1.14 % ID
- Biodistribution: Stomach (120 min post-injection): 0.47 ± 0.10 % ID
- absolute myocardial uptake (assessment): low

SMILES: COC(C)(C)C[N+]#[C][99Tc-5]([C]#[N+]CC(C)(C)OC)([C]#[N+]CC(C)(C)OC)([C]#[N+]CC(C)(C)OC)([C]#[N+]CC(C)(C)OC)[C]#[N+]CC(C)(C)OCCCS(=O)(=O)CCCCCSCCCCC(=O)O [^99mTc complex 130]
- Biodistribution: Blood (5 min post-injection): 0.54 ± 0.07 ID %/g
- Biodistribution: Bone (5 min post-injection): 0.54 ± 0.10 ID %/g
- Biodistribution: Brain (5 min post-injection): 0.04 ± 0.00 ID %/g
- Biodistribution: Heart (5 min post-injection): 2.14 ± 0.25 ID %/g
- Biodistribution: Kidney (5 min post-injection): 9.64 ± 0.08 ID %/g
- Biodistribution: Liver (5 min post-injection): 53.13 ± 4.86 ID %/g
- Biodistribution: Lungs (5 min post-injection): 0.84 ± 0.09 ID %/g
- Biodistribution: Muscle (5 min post-injection): 0.75 ± 0.06 ID %/g
- Biodistribution: Spleen (5 min post-injection): 0.67 ± 0.04 ID %/g
- Heart-to-Blood ratio (5 min post-injection): 3.96
- Heart-to-Liver ratio (5 min post-injection): 0.04
- Heart-to-Lungs ratio (5 min post-injection): 2.55
- Heart-to-Muscle ratio (5 min post-injection): 2.85
- Biodistribution: Large Intestine (5 min post-injection): 0.53 ± 0.10 % ID
- Biodistribution: Small Intestine (5 min post-injection): 4.32 ± 0.25 % ID
- Biodistribution: Stomach (5 min post-injection): 0.17 ± 0.02 % ID
- Biodistribution: Blood (15 min post-injection): 0.24 ± 0.01 ID %/g
- Biodistribution: Bone (15 min post-injection): 0.76 ± 0.13 ID %/g
- Biodistribution: Brain (15 min post-injection): 0.03 ± 0.01 ID %/g
- Biodistribution: Heart (15 min post-injection): 1.92 ± 0.18 ID %/g
- Biodistribution: Kidney (15 min post-injection): 7.89 ± 0.19 ID %/g
- Biodistribution: Liver (15 min post-injection): 42.04 ± 2.91 ID %/g
- Biodistribution: Lungs (15 min post-injection): 0.76 ± 0.03 ID %/g
- Biodistribution: Muscle (15 min post-injection): 0.67 ± 0.07 ID %/g
- Biodistribution: Spleen (15 min post-injection): 0.50 ± 0.03 ID %/g
- Heart-to-Blood ratio (15 min post-injection): 8.00
- Heart-to-Liver ratio (15 min post-injection): 0.05
- Heart-to-Lungs ratio (15 min post-injection): 2.53
- Heart-to-Muscle ratio (15 min post-injection): 2.87
- Biodistribution: Large Intestine (15 min post-injection): 0.82 ± 0.34 % ID
- Biodistribution: Small Intestine (15 min post-injection): 20.74 ± 0.83 % ID
- Biodistribution: Stomach (15 min post-injection): 0.26 ± 0.01 % ID
- Biodistribution: Blood (30 min post-injection): 0.12 ± 0.04 ID %/g
- Biodistribution: Bone (30 min post-injection): 0.33 ± 0.12 ID %/g
- Biodistribution: Brain (30 min post-injection): 0.02 ± 0.01 ID %/g
- Biodistribution: Heart (30 min post-injection): 1.54 ± 0.38 ID %/g
- Biodistribution: Kidney (30 min post-injection): 2.51 ± 0.58 ID %/g
- Biodistribution: Liver (30 min post-injection): 18.08 ± 0.30 ID %/g
- Biodistribution: Lungs (30 min post-injection): 0.28 ± 0.05 ID %/g
- Biodistribution: Muscle (30 min post-injection): 0.59 ± 0.16 ID %/g
- Biodistribution: Spleen (30 min post-injection): 0.31 ± 0.05 ID %/g
- Heart-to-Blood ratio (30 min post-injection): 12.83
- Heart-to-Liver ratio (30 min post-injection): 0.09
- Heart-to-Lungs ratio (30 min post-injection): 5.50
- Heart-to-Muscle ratio (30 min post-injection): 2.61
- Biodistribution: Large Intestine (30 min post-injection): 1.56 ± 0.16 % ID
- Biodistribution: Small Intestine (30 min post-injection): 29.63 ± 3.26 % ID
- Biodistribution: Stomach (30 min post-injection): 0.12 ± 0.04 % ID
- Biodistribution: Blood (60 min post-injection): 0.08 ± 0.01 ID %/g
- Biodistribution: Bone (60 min post-injection): 0.15 ± 0.03 ID %/g
- Biodistribution: Brain (60 min post-injection): 0.02 ± 0.00 ID %/g
- Biodistribution: Heart (60 min post-injection): 1.37 ± 0.26 ID %/g
- Biodistribution: Kidney (60 min post-injection): 1.20 ± 0.10 ID %/g
- Biodistribution: Liver (60 min post-injection): 15.12 ± 1.7 ID %/g
- Biodistribution: Lungs (60 min post-injection): 0.19 ± 0.01 ID %/g
- Biodistribution: Muscle (60 min post-injection): 0.43 ± 0.09 ID %/g
- Biodistribution: Spleen (60 min post-injection): 0.14 ± 0.03 ID %/g
- Heart-to-Blood ratio (60 min post-injection): 17.13
- Heart-to-Liver ratio (60 min post-injection): 0.09
- Heart-to-Lungs ratio (60 min post-injection): 7.21
- Heart-to-Muscle ratio (60 min post-injection): 3.19
- Biodistribution: Large Intestine (60 min post-injection): 16.13 ± 5.3 % ID
- Biodistribution: Small Intestine (60 min post-injection): 26.18 ± 3.9 % ID
- Biodistribution: Stomach (60 min post-injection): 0.29 ± 0.05 % ID
- Biodistribution: Blood (120 min post-injection): 0.04 ± 0.01 ID %/g
- Biodistribution: Bone (120 min post-injection): 0.09 ± 0.01 ID %/g
- Biodistribution: Brain (120 min post-injection): 0.02 ± 0.01 ID %/g
- Biodistribution: Heart (120 min post-injection): 1.27 ± 0.03 ID %/g
- Biodistribution: Kidney (120 min post-injection): 0.30 ± 0.04 ID %/g
- Biodistribution: Liver (120 min post-injection): 3.74 ± 0.98 ID %/g
- Biodistribution: Lungs (120 min post-injection): 0.19 ± 0.05 ID %/g
- Biodistribution: Muscle (120 min post-injection): 0.38 ± 0.10 ID %/g
- Biodistribution: Spleen (120 min post-injection): 0.13 ± 0.02 ID %/g
- Heart-to-Blood ratio (120 min post-injection): 31.75
- Heart-to-Liver ratio (120 min post-injection): 0.34
- Heart-to-Lungs ratio (120 min post-injection): 6.68
- Heart-to-Muscle ratio (120 min post-injection): 3.34
- Biodistribution: Large Intestine (120 min post-injection): 34.11 ± 4.52 % ID
- Biodistribution: Small Intestine (120 min post-injection): 7.50 ± 2.45 % ID
- Biodistribution: Stomach (120 min post-injection): 0.17 ± 0.12 % ID
- absolute myocardial uptake (assessment): relatively low
